One test concerns the target T1, GCNF LBD F284A (Homo sapiens, UniProt Q15406, F284A).
T1 construct: Human GCNF (NR6A1) LBD (residues 248-480) and mutants F284A/F361A; hexahistidine tag with 3C protease site; made in house; host or cells: E. coli BL(21) DE3
T1 sequence (Q15406 248-480 F284A): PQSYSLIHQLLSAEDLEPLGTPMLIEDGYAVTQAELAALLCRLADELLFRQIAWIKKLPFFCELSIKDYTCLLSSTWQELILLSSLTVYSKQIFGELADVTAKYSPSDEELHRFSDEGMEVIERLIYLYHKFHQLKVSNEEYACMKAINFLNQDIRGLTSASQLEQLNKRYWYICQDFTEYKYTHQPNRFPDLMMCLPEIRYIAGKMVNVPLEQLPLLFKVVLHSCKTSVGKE
Description: DSF of GCNF LBD mutant F284A. The test is classed as binding. As to conditions: 20 μM ligand. As for the experimental part:
(§1) Protein Expression and Purification. Human GCNF (NR6A1) LBD (residues 248-480) and mutants F284A/F361A, human LRH-1 (NR5A2) LBD (residues 291-541), human RXRα LBD (residues 223-462), human COUP-TF I LBD (residues 184-410) and human SF-1 LBD (residues 219-461) were subcloned in pET45b(+) plasmid (Novagen) were expressed in E. coli BL(21) DE3 cells in terrific broth with 0.1 mg/mL ampicillin as 3C protease-cleavable hexahistidine-tagged fusion proteins. The bacterial culture was grown at 37° C. to an optical density of 0.8 to 1.0 at 600 nm. Protein expression was induced by adding 1 mM IPTG and was allowed to proceed for 14 h at 22° C. […]
(§2) DSF Assay. […] A total of 450 compounds (Life Chemicals) previously selected from a nuclear-receptor-biased library targeting REV-ERB were analyzed. Thermal stability was assessed on a Quantstudio 6 instrument (Biosystems) by ramping the temperature from 25° C. to 95° C. at 0.05° C./s and protein melt shifts were subsequently quantified by Boltzmann-derived melting temperature (Tm) using the Protein Thermal Shift (ThermoFisher) software. […]

For another test, the target named is T2, RXRα LBD (Homo sapiens, UniProt P19793).
T2 construct: human RXRα LBD (residues 223-462); hexahistidine tag with 3C protease site; made in house; host or cells: E. coli BL(21) DE3
T2 sequence (P19793 223-462): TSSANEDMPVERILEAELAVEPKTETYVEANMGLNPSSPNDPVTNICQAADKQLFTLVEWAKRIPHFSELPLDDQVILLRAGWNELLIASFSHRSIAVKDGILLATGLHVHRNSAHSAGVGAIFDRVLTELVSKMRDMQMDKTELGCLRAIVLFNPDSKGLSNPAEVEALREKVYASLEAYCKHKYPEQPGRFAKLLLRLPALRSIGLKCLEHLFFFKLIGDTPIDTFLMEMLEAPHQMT
Description: DSF specificity assay, RXRα. The test is classed as binding. The method, then:
as §1, §2

Test [1] relates to BeWo human choriocarcinoma cells. Description: qPCR of GCNF target gene expression in BeWo cells. The test is classed as cell-based. As to conditions: 20 μM, 24 h. As for the experimental part:
BeWo cells were cultured in DMEM-F12 medium (Gibco) with 10% FBS (Gembio) and plated at 75,000 cells per well in 12-well plates (Corning). 24-hours after plating, cells were treated with either DMSO, ligand 34 or ligand 80 (20 μM) at 4 wells/group. RNA was isolated 24-hours after drug treatment and cDNA was synthesized for the QPCR assays using Bio-Rad iScript cDNA synthesis kit per manufacturer's protocol. Expression was analyzed by QPCR using a custom array plate (Bio-Rad PrimePCR) per manufacturer's protocol; n=4 was used for cell-based assays and plotted as mean±SEM.
A general note: Real-time PCR tracks product formation cycle by cycle.

`Cc1ccc(-n2ncc3c(N4CCOCC4)nc(NCc4ccco4)nc32)cc1` [Ligand 34, N-[(furan-2-yl)methyl]-1-(4-methylphenyl)-4-(morpholin-4-yl)-1H-pyrazolo[3,4-d]pyrimidin-6-amine]: at GCNF LBD F284A, the “effect of mutation F284A on ΔTm compared to WT” value is “substantially decreased the ΔTm”. At RXRα LBD, the “change of Tm of RXRα LBD” value was “did not significantly change”. In test [1], the GCNF gene expression entry is recorded as “not affected”, the “NR5A1 (SF-1) expression” value is given as “significantly promoted the expression”, the “NR5A2 (LRH-1) expression” value is “significantly promoted the expression” and the Nanog expression entry was “significantly promoted the expression”. In addition, in test [1], the Oct4 expression result is recorded as “significantly promoted the expression”, the “carnitine palmitoyltransferase 1a (CPT1a) expression” value is “significantly increased”, the “diglyceride acyltransferase-1 (DGAT1) expression” value is listed as “significantly promoted the expression” and the “diglyceride acyltransferase-2 (DGAT2) expression” value is given as “no significant effect”. Besides, in test [1], the “fatty acid synthase (FASN) expression” value is “no significant effect” and the “phosphoenolpyruvate carboxykinase (PEPCK) expression” value is listed as “upregulated”.

Turning to `O=C(Cn1cc(S(=O)(=O)c2ccccc2)c2ccccc21)N1CCc2ccccc21` [Ligand 80, 2-[3-(benzenesulfonyl)-1H-indol-1-yl]-1-(2,3-dihydro-1H-indol-1-yl)ethan-1-one], the “effect of mutation F284A on ΔTm compared to WT” value on GCNF LBD F284A is on record as “no substantial effect”. Besides, at RXRα LBD, the “change of Tm of RXRα LBD” value was “did not significantly change”. Besides, in test [1], the GCNF gene expression entry is reported as “not affected”; the “NR5A1 (SF-1) expression” value was “but not 80, significantly promoted the expression”; the Oct4 expression entry is “but not 80, significantly promoted the expression”; the “carnitine palmitoyltransferase 1a (CPT1a) expression” value is “no effect”. In test [1], the “diglyceride acyltransferase-1 (DGAT1) expression” value is “but not 80, significantly promoted the expression”; the “diglyceride acyltransferase-2 (DGAT2) expression” value is “no significant effect”; the “fatty acid synthase (FASN) expression” value is recorded as “no significant effect”; the “phosphoenolpyruvate carboxykinase (PEPCK) expression” value was “upregulated”.

The record behind these values is US12478628B2, “Germ cell nuclear factor ligands and methods of use thereof” (Saint Louis University, priority 2020, dated 2025).
